Drawing on ChEMBL document CHEMBL3627717, “Multivalent LKγ-PNA oligomers bind to a human telomere DNA G-rich sequence to form quadruplexes” (Bioorg Med Chem Lett, 2015), this text covers Tm for 4 compounds.

This assay relates to DNA. Briefly: Binding affinity to human truncated telomeric DNA1 assessed as melting temperature at 20 uM by UV melting curve analysis (reference value: 58.9 +/- 0.3 degC). It counts as nucleic-acid assay.
On to `CC(=O)NCCN(CC(=O)NCCN(CC(=O)NC(CCCCN)CN(CC(=O)NCCN(CC(=O)NCCN(CC(=O)NC(CCCCN(C)C)C(N)=O)C(=O)Cn1cc(C)c(=O)[nH]c1=O)C(=O)Cn1cnc2c(=O)[nH]c(N)nc21)C(=O)Cn1cnc2c(=O)[nH]c(N)nc21)C(=O)Cn1cnc2c(=O)[nH]c(N)nc21)C(=O)Cn1cc(C)c(=O)[nH]c1=O` (centres undefined), for which the Tm was determined as 60.2 °C.

Regarding `CC(=O)NCCN(CC(=O)NC(CCCCN)CN(CC(=O)NCCN(CC(=O)NC(CCCCN)CN(CC(=O)NCCN(CC(=O)NC(CCCCN(C)C)C(N)=O)C(=O)Cn1cc(C)c(=O)[nH]c1=O)C(=O)Cn1cnc2c(=O)[nH]c(N)nc21)C(=O)Cn1cnc2c(=O)[nH]c(N)nc21)C(=O)Cn1cnc2c(=O)[nH]c(N)nc21)C(=O)Cn1cc(C)c(=O)[nH]c1=O` (centres undefined), the Tm stood at 58.4 °C.

Turning to `CC(=O)NCCN(CC(=O)NC(CCCCN)CN(CC(=O)NC(CCCCN)CN(CC(=O)NC(CCCCN)CN(CC(=O)NCCN(CC(=O)NC(CCCCN(C)C)C(N)=O)C(=O)Cn1cc(C)c(=O)[nH]c1=O)C(=O)Cn1cnc2c(=O)[nH]c(N)nc21)C(=O)Cn1cnc2c(=O)[nH]c(N)nc21)C(=O)Cn1cnc2c(=O)[nH]c(N)nc21)C(=O)Cn1cc(C)c(=O)[nH]c1=O` (centres undefined), the Tm was 59.1 °C.

Regarding `CC(=O)NCCN(CC(=O)NCCN(CC(=O)NCCN(CC(=O)NCCN(CC(=O)NCCN(CC(=O)NC(CCCCN(C)C)C(N)=O)C(=O)Cn1cc(C)c(=O)[nH]c1=O)C(=O)Cn1cnc2c(=O)[nH]c(N)nc21)C(=O)Cn1cnc2c(=O)[nH]c(N)nc21)C(=O)Cn1cnc2c(=O)[nH]c(N)nc21)C(=O)Cn1cc(C)c(=O)[nH]c1=O` (centres undefined), the Tm is 57.3 °C.
